Reference: patent publication US20080161289A1, “Fused Thiazole Derivatives Having Affinity for the Histamine H3 Receptor” (Glaxo Group Limited, priority 2005, published 2008)

Molecular target: T1, histamine H3 receptors (Homo sapiens, UniProt Q9Y5N1)
T1 construct: expressed in transfected cells; host or cells: CHO K1 cells carrying pSwitch, transfected with pGeneH3, induced with mifepristone; clone 3H3; membrane preparation
Assay: Histamine H3 functional antagonist assay ([35S]-GTPγS SPA on membranes from H3 cells)
Assay type: biochemical
Details: hydrochloride salts tested; H3 functional antagonist assay using membrane prepared from cultured H3 cells; averages of a number of experiments; read-out: functional pKi (fpKi) (converted)
Description: A membrane preparation containing histamine H3 receptors may be prepared in accordance with the following procedures:
(i) Generation of Histamine H3 Cell Line
DNA encoding the human histamine H3 gene (Huvar, A. et al. (1999) Mol. Pharmacol. 55(6), 1101-1107) was cloned into a holding vector, pCDNA3.1 TOPO (InVitrogen) and its cDNA was isolated from this vector by restriction digestion of plasmid DNA with the enzymes BamHI and Not-1 and ligated into the inducible expression vector pGene (InVitrogen) digested with the same enzymes. The GeneSwitch™ system (a system where in transgene expression is switched off in the absence of an inducer and switched on in the presence of an inducer) was performed as described in U.S. Pat. Nos. 5,364,791; 5,874,534; and 5,935,934. Ligated DNA was transformed into competent DH5α E. coli host bacterial cells and plated onto Luria Broth (LB) agar containing Zeocin™ (an antibiotic which allows the selection of cells expressing the sh ble gene which is present on pGene and pSwitch) at 50 μg ml^−1. Colonies containing the re-ligated plasmid were identified by restriction analysis. DNA for transfection into mammalian cells was prepared from 250 ml cultures of the host bacterium containing the pGeneH3 plasmid and isolated using a DNA preparation kit (Qiagen Midi-Prep) as per manufacturers guidelines (Qiagen).
CHO K1 cells previously transfected with the pSwitch regulatory plasmid (InVitrogen) were seeded at 2×10e6 cells per T75 flask in Complete Medium, containing Hams F12 (GIBCOBRL, Life Technologies) medium supplemented with 10% v/v dialysed foetal bovine serum, L-glutamine, and hygromycin (100 μg ml^−1), 24 hours prior to use. Plasmid DNA was transfected into the cells using Lipofectamine plus according to the manufacturers guidelines (InVitrogen). 48 hours post transfection cells were placed into complete medium supplemented with 500 μg ml^−1 Zeocin™.
10-14 days post selection 10 nM Mifepristone (InVitrogen), was added to the culture medium to induce the expression of the receptor. 18 hours post induction cells were detached from the flask using ethylenediamine tetra-acetic acid (EDTA; 1:5000; InVitrogen), following several washes with phosphate buffered saline pH 7.4 and resuspended in Sorting Medium containing Minimum Essential Medium (MEM), without phenol red, and supplemented with Earles salts and 3% Foetal Clone II (Hyclone). Approximately 1×10e7 cells were examined for receptor expression by staining with a rabbit polyclonal antibody, 4a, raised against the N-terminal domain of the histamine H3 receptor, incubated on ice for 60 minutes, followed by two washes in sorting medium. Receptor bound antibody was detected by incubation of the cells for 60 minutes on ice with a goat anti rabbit antibody, conjugated with Alexa 488 fluorescence marker (Molecular Probes). Following two further washes with Sorting Medium, cells were filtered through a 50 μm Filcon™ (BD Biosciences) and then analysed on a FACS Vantage SE Flow Cytometer fitted with an Automatic Cell Deposition Unit. Control cells were non-induced cells treated in a similar manner. Positively stained cells were sorted as single cells into 96-well plates, containing Complete Medium containing 500 μg ml^−1 Zeocin™ and allowed to expand before reanalysis for receptor expression via antibody and ligand binding studies. One clone, 3H3, was selected for membrane preparation.
(ii) Membrane Preparation from Cultured Cells
All steps of the protocol are carried out at 4° C. and with pre-cooled reagents. The cell pellet is resuspended in 10 volumes of homogenisation buffer (50 mM N-2-hydroxyethylpiperazine-N′-2-ethanesulfonic acid (HEPES), 1 mM ethylenediamine tetra-acetic acid (EDTA), pH 7.4 with KOH, supplemented with 10e-6M leupeptin (acetyl-leucyl-leucyl-arginal; Sigma L2884), 25 μg/ml bacitracin (Sigma B0125), 1 mM phenylmethylsulfonyl fluoride (PMSF) and 2×10e-6M pepstain A (Sigma)). […]

T1 sequence (Q9Y5N1 whole entry): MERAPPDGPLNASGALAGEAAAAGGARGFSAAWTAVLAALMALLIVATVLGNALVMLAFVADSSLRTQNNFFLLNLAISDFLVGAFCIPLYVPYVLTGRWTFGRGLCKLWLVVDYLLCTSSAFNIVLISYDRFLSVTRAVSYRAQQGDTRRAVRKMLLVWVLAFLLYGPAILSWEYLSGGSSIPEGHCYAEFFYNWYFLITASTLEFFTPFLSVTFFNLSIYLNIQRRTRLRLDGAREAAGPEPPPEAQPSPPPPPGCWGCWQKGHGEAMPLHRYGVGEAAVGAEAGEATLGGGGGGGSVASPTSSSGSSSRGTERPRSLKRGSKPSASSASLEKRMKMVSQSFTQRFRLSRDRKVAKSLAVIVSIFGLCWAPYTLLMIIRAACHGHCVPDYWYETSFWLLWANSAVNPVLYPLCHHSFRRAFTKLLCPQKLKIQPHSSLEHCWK

Structure (SMILES): CC(C)N1CCc2nc(-c3ccc(N4CCN(C)C4=O)cc3)sc2CC1 [Example E29, 1-Methyl-3-{4-[6-(1-methylethyl)-5,6,7,8-tetrahydro-4H-[1,3]thiazolo[4,5-d]azepin-2-yl]phenyl}-2-imidazolidinone]
- Ki: < 1.26 nM

Structure (SMILES): CN1CCN(c2ccc(-c3nc4c(s3)CCN(C3CCCCC3)CC4)cc2)C1=O [Example E30, 1-[4-(6-Cyclohexyl-5,6,7,8-tetrahydro-4H-[1,3]thiazolo[4,5-d]azepin-2-yl)phenyl]-3-methyl-2-imidazolidinone]
- Ki: < 1.26 nM

Structure (SMILES): CN1CCN(c2ccc(-c3nc4c(s3)CCN(CC3CC3)CC4)cc2)C1=O [Example E31, 1-{4-[6-(Cyclopropylmethyl)-5,6,7,8-tetrahydro-4H-[1,3]thiazolo[4,5-d]azepin-2-yl]phenyl}-3-methyl-2-imidazolidinone]
- Ki: < 1.26 nM

Structure (SMILES): CC(C)CN1CCc2nc(-c3ccc(N4CCN(C)C4=O)cc3)sc2CC1 [Example E32, 1-Methyl-3-{4-[6-(2-methylpropyl)-5,6,7,8-tetrahydro-4H-[1,3]thiazolo[4,5-d]azepin-2-yl]phenyl}-2-imidazolidinone]
- Ki: < 0.316 nM

Structure (SMILES): N#Cc1cncc(N2CCC(c3nc4c(s3)CCN(C3CCC3)CC4)C2)c1 (stereo not shown) [Example E39, 5-[3-(6-Cyclobutyl-5,6,7,8-tetrahydro-4H-[1,3]thiazolo[4,5-d]azepin-2-yl)-1-pyrrolidinyl]-3-pyridinecarbonitrile]
- Ki: < 1.26 nM

Structure (SMILES): c1ccc(-c2nc3c(s2)CCN(C2CCC2)CC3)cc1 [Example E42, 6-Cyclobutyl-2-phenyl-5,6,7,8-tetrahydro-4H-[1,3]thiazolo[4,5-d]azepine]
- Ki: < 31.6 nM

Structure (SMILES): CNC(=O)c1ccc(-c2nc3c(s2)CCN(C2CCC2)CC3)cc1 [Example E43, 4-(6-Cyclobutyl-5,6,7,8-tetrahydro-4H-[1,3]thiazolo[4,5-d]azepin-2-yl)-N-methylbenzamide]
- Ki: < 1.26 nM

Structure (SMILES): O=C1OCCN1c1ccc(-c2nc3c(s2)CCN(C2CCC2)CC3)cc1 [Example E44, 3-[4-(6-Cyclobutyl-5,6,7,8-tetrahydro-4H-[1,3]thiazolo[4,5-d]azepin-2-yl)phenyl]-1,3-oxazolidin-2-one]
- Ki: < 0.316 nM

Structure (SMILES): N#Cc1ccc(-c2nc3c(s2)CCN(C2CCC2)CC3)cc1 [Example E48, 4-(6-Cyclobutyl-5,6,7,8-tetrahydro-4H-[1,3]thiazolo[4,5-d]azepin-2-yl)benzonitrile]
- Ki: < 1.26 nM

Structure (SMILES): N#Cc1ccc(-c2nc3c(s2)CCN(C2CCC2)CC3)cn1 [Example E49, 5-(6-Cyclobutyl-5,6,7,8-tetrahydro-4H-[1,3]thiazolo[4,5-d]azepin-2-yl)-2-pyridinecarbonitrile]
- Ki: < 31.6 nM

Structure (SMILES): CNC(=O)c1ccc(-c2nc3c(s2)CCN(C2CCC2)CC3)cn1 [Example E51, 5-(6-Cyclobutyl-5,6,7,8-tetrahydro-4H-[1,3]thiazolo[4,5-d]azepin-2-yl)-N-methyl-2-pyridinecarboxamide]
- Ki: < 1.26 nM

Structure (SMILES): O=C1CCCN1c1ccc(-c2nc3c(s2)CCN(C2CCC2)CC3)cn1 [Example E52, 1-[5-(6-Cyclobutyl-5,6,7,8-tetrahydro-4H-[1,3]thiazolo[4,5-d]azepin-2-yl)-2-pyridinyl]-2-pyrrolidinone]
- Ki: < 0.316 nM

Structure (SMILES): CN1CCN(c2ccc(-c3nc4c(s3)CCN(C3CCC3)CC4)cn2)C1=O [Example E53, 1-[5-(6-Cyclobutyl-5,6,7,8-tetrahydro-4H-[1,3]thiazolo[4,5-d]azepin-2-yl)-2-pyridinyl]-3-methyl-2-imidazolidinone]
- Ki: < 0.316 nM

Structure (SMILES): c1cc(N2CCCCC2)ncc1-c1nc2c(s1)CCN(C1CCC1)CC2 [Example E55, 6-Cyclobutyl-2-[6-(1-piperidinyl)-3-pyridinyl]-5,6,7,8-tetrahydro-4H-[1,3]thiazolo[4,5-d]azepine]
- Ki: < 1.26 nM

Structure (SMILES): c1ncc(-c2nc3c(s2)CCN(C2CCC2)CC3)cn1 [Example E58, 6-Cyclobutyl-2-(5-pyrimidinyl)-5,6,7,8-tetrahydro-4H-[1,3]thiazolo[4,5-d]azepine]
- Ki: < 31.6 nM

Structure (SMILES): c1nc(N2CCCCC2)ncc1-c1nc2c(s1)CCN(C1CCC1)CC2 [Example E61, 6-Cyclobutyl-2-[2-(1-piperidinyl)-5-pyrimidinyl]-5,6,7,8-tetrahydro-4H-[1,3]thiazolo[4,5-d]azepine]
- Ki: < 31.6 nM

Structure (SMILES): N#Cc1cncc(N2CCC(c3nc4c(s3)CCN(C3CCC3)CC4)CC2)c1 [Example E66, 5-[4-(6-Cyclobutyl-5,6,7,8-tetrahydro-4H-[1,3]thiazolo[4,5-d]azepin-2-yl)-1-piperidinyl]-3-pyridinecarbonitrile]
- Ki: < 1.26 nM

Structure (SMILES): N#Cc1ccc(N2CCC(c3nc4c(s3)CCN(C3CCC3)CC4)CC2)cc1 [Example E67, 4-[4-(6-Cyclobutyl-5,6,7,8-tetrahydro-4H-[1,3]thiazolo[4,5-d]azepin-2-yl)-1-piperidinyl]benzonitrile]
- Ki: < 0.316 nM

Structure (SMILES): Cc1ccccc1NC(=O)N1CCC(c2nc3c(s2)CCN(C2CCC2)CC3)CC1 [Example E70, 4-(6-Cyclobutyl-5,6,7,8-tetrahydro-4H-[1,3]thiazolo[4,5-d]azepin-2-yl)-N-(2-methylphenyl)-1-piperidinecarboxamide]
- Ki: < 1.26 nM

Structure (SMILES): N#Cc1ccc(-c2nc3c(s2)CCN(C2CCCC2)CC3)nc1 [Example E74, 6-(6-Cyclopentyl-5,6,7,8-tetrahydro-4H-[1,3]thiazolo[4,5-d]azepin-2-yl)-3-pyridinecarbonitrile]
- Ki: < 31.6 nM

Structure (SMILES): CNC(=O)c1ccc(-c2nc3c(s2)CCN(C2CCC2)CC3)nc1 [Example E76, 6-(6-Cyclobutyl-5,6,7,8-tetrahydro-4H-[1,3]thiazolo[4,5-d]azepin-2-yl)-N-methyl-3-pyridinecarboxamide]
- Ki: < 31.6 nM

Structure (SMILES): CNC(=O)c1ccc(N2CCC(c3nc4c(s3)CCN(C3CCC3)CC4)CC2)cn1 [Example E77, 5-[4-(6-Cyclobutyl-5,6,7,8-tetrahydro-4H-[1,3]thiazolo[4,5-d]azepin-2-yl)-1-piperidinyl]-N-methyl-2-pyridinecarboxamide]
- Ki: < 1.26 nM

Structure (SMILES): Cc1ccccc1C(=O)N1CCC(c2nc3c(s2)CCN(C2CCC2)CC3)CC1 [Example E78, 6-Cyclobutyl-2-{1-[(2-methylphenyl)carbonyl]-4-piperidinyl}-5,6,7,8-tetrahydro-4H-[1,3]thiazolo[4,5-d]azepine]
- Ki: < 0.316 nM

Structure (SMILES): Cc1cc(C(=O)N2CCC(c3nc4c(s3)CCN(C3CCC3)CC4)CC2)[nH]n1 [Example E79, 6-Cyclobutyl-2-{1-[(3-methyl-1H-pyrazol-5-yl)carbonyl]-4-piperidinyl}-5,6,7,8-tetrahydro-4H-[1,3]thiazolo[4,5-d]azepine]
- Ki: < 1.26 nM

Structure (SMILES): O=C(c1ccc(Cl)cc1)N1CCC(c2nc3c(s2)CCN(C2CCC2)CC3)CC1 [Example E80, 2-{1-[(4-Chlorophenyl)carbonyl]-4-piperidinyl}-6-cyclobutyl-5,6,7,8-tetrahydro-4H-[1,3]thiazolo[4,5-d]azepine]
- Ki: < 1.26 nM

Structure (SMILES): O=C(c1cccc(Cl)c1)N1CCC(c2nc3c(s2)CCN(C2CCC2)CC3)CC1 [Example E81, 2-{1-[(3-Chlorophenyl)carbonyl]-4-piperidinyl}-6-cyclobutyl-5,6,7,8-tetrahydro-4H-[1,3]thiazolo[4,5-d]azepine]
- Ki: < 0.316 nM

Structure (SMILES): Cc1cccc(C(=O)N2CCC(c3nc4c(s3)CCN(C3CCC3)CC4)CC2)c1 [Example E82, 6-Cyclobutyl-2-{1-[(3-methylphenyl)carbonyl]-4-piperidinyl}-5,6,7,8-tetrahydro-4H-[1,3]thiazolo[4,5-d]azepine]
- Ki: < 1.26 nM

Structure (SMILES): Cc1cccnc1C(=O)N1CCC(c2nc3c(s2)CCN(C2CCC2)CC3)CC1 [Example E83, 6-Cyclobutyl-2-{1-[(3-methyl-2-pyridinyl)carbonyl]-4-piperidinyl}-5,6,7,8-tetrahydro-4H-[1,3]thiazolo[4,5-d]azepine]
- Ki: < 1.26 nM
